Where “and” joins values, the source holds several entries; their conditions need not be identical. Equal values may be shown once.
Conditions: Hot wire method

CCF [fluoroethane]
Conditions | thermal conductivity [W/m/K]
355.41 K, 2277.9 kPa, Gas | 0.02422
355.59 K, 2007.1 kPa, Gas | 0.02432
355.72 K, 1531.1 kPa, Gas | 0.02295
355.79 K, 2586.5 kPa, Gas | 0.02513
355.91 K, 2277.9 kPa, Gas | 0.02436
355.95 K, 2934.5 kPa, Gas | 0.0265
355.99 K, 1034.8 kPa, Gas | 0.02302
356.06 K, 2007.1 kPa, Gas | 0.02406
356.17 K, 611.2 kPa, Gas | 0.02275
356.26 K, 2586.5 kPa, Gas | 0.02498
356.27 K, 1531.1 kPa, Gas | 0.02331
356.32 K, 266.7 kPa, Gas | 0.02267
356.52 K, 2277.9 kPa, Gas | 0.02412
356.55 K, 1034.8 kPa, Gas | 0.0229
356.73 K, 2007.1 kPa, Gas | 0.02363
356.82 K, 611.2 kPa, Gas | 0.02305
357.02 K, 266.7 kPa, Gas | 0.02276
357.06 K, 1531.1 kPa, Gas | 0.02299
357.39 K, 1034.8 kPa, Gas | 0.02287
357.69 K, 611.2 kPa, Gas | 0.02264
357.98 K, 266.7 kPa, Gas | 0.02298
364.77 K, 3438 kPa, Gas | 0.02941
364.87 K, 3960.3 kPa, Gas | 0.03259
365.05 K, 2942.4 kPa, Gas | 0.02781
365.11 K, 3438 kPa, Gas | 0.02942
365.43 K, 2942.4 kPa, Gas | 0.02721
365.62 K, 2506.8 kPa, Gas | 0.0257
365.62 K, 3718.5 kPa, Gas | 0.03133
365.65 K, 3438 kPa, Gas | 0.02965
365.98 K, 2942.4 kPa, Gas | 0.027
365.99 K, 2001.8 kPa, Gas | 0.02478
366.21 K, 2506.8 kPa, Gas | 0.02572
366.21 K, 3718.5 kPa, Gas | 0.03142
366.29 K, 533.7 kPa, Gas | 0.02342
366.42 K, 1515.5 kPa, Gas | 0.02467
366.63 K, 1029 kPa, Gas | 0.0243
366.67 K, 2001.8 kPa, Gas | 0.02473
366.76 K, 2506.8 kPa, Gas | 0.02558
367.1 K, 1515.5 kPa, Gas | 0.02393
367.32 K, 2001.8 kPa, Gas | 0.02511
367.38 K, 533.7 kPa, Gas | 0.0242
367.49 K, 1029 kPa, Gas | 0.02463
368.3 K, 533.7 kPa, Gas | 0.02352
368.41 K, 1515.5 kPa, Gas | 0.02402
368.9 K, 1029 kPa, Gas | 0.02415
373.83 K, 4470.3 kPa, Gas | 0.03726
373.99 K, 4470.3 kPa, Gas | 0.03714
374.47 K, 4470.3 kPa, Gas | 0.03687
374.48 K, 2938.6 kPa, Gas | 0.02793
374.62 K, 2478.9 kPa, Gas | 0.02638
374.67 K, 3543.9 kPa, Gas | 0.03045
374.7 K, 2119.8 kPa, Gas | 0.02585
374.85 K, 1564.8 kPa, Gas | 0.02515
375.05 K, 2938.6 kPa, Gas | 0.02813
375.25 K, 2119.8 kPa, Gas | 0.02574
375.37 K, 364.6 kPa, Gas | 0.02485
375.68 K, 1564.8 kPa, Gas | 0.0258
375.8 K, 2478.9 kPa, Gas | 0.02745
375.94 K, 2119.8 kPa, Gas | 0.02613
376.1 K, 887.8 kPa, Gas | 0.02494
376.18 K, 1564.8 kPa, Gas | 0.02555
376.41 K, 364.6 kPa, Gas | 0.02448
376.83 K, 887.8 kPa, Gas | 0.02525
377.08 K, 364.6 kPa, Gas | 0.02454
377.36 K, 5247.3 kPa, Fluid (supercritical or subcritical phases) | 0.07905
377.63 K, 5247.3 kPa, Fluid (supercritical or subcritical phases) | 0.08228
377.73 K, 5247.3 kPa, Fluid (supercritical or subcritical phases) | 0.08638
380.51 K, 5230.1 kPa, Fluid (supercritical or subcritical phases) | 0.05046

Liquid
Conditions | thermal conductivity
355.7 K | 0.08043 W/m/K and 0.08031 W/m/K
355.71 K | 0.08044 W/m/K
364.69 K | 0.07657 W/m/K
364.71 K | 0.07768 W/m/K
364.75 K | 0.07676 W/m/K
365.06 K | 0.07678 W/m/K
365.08 K | 0.07679 W/m/K and 0.07656 W/m/K
365.47 K | 0.07603 W/m/K
365.52 K | 0.07616 W/m/K
365.53 K | 0.07615 W/m/K
374.47 K | 0.07323 W/m/K
374.48 K | 0.07368 W/m/K and 0.07356 W/m/K
374.81 K | 0.07343 W/m/K and 0.07344 W/m/K
374.82 K | 0.07343 W/m/K
375.2 K | 0.07321 W/m/K
375.21 K | 0.07381 W/m/K and 0.07357 W/m/K

Reference: the NIST ThermoML archive (doi:10.1016/j.fluid.2014.04.038)
